Results taken from article PMC5931107, “Clinical pharmacodynamic/exposure characterisation of the multikinase inhibitor ilorasertib (ABT-348) in a phase 1 dose-escalation trial” (British Journal of Cancer, 2018).
Marks after values point to notes of the source that are not given here.

Assay: Plasma pharmacokinetics, Arm II (oral BID), phase 1 trial
Assay type: in vivo, human
Procedure: Pharmacokinetics of ilorasertib were evaluated in the dose-escalation cohort on blood samples that were collected on cycle 1 days 1 and 15. Parameters determined: Cmax, time to Cmax (Tmax), terminal phase elimination half-life (t1/2), clearance, apparent oral clearance (CL/F), and area under the plasma concentration-time curve from time 0 to time of last measurable concentration (AUCt) and from time 0 to infinity (AUC∞). For Arm I, blood samples were collected prior to dosing and at 0.5, 1, 2, 3, 4, 6, 8, 10 or 12, and 24 h after dosing on cycle 1 days 1 and 15; of note, for institutions not able to collect the 10- or 12-h post-dose sample, the 24-h sample was replaced with 22-h and 28-h post-dose samples. In Arm II, for the first dose, blood samples were collected pre-dose and at 1, 2, 3, and 4 h post-dose on cycle 1 days 1 and 15; for the second dose, samples were collected pre-dose and at 1, 2, 3, 4, 18, and 24 h after second dose on cycle 1 days 1 and 15. In Arm III, blood samples were collected prior to infusion, at 1 h 55 min (just before end of infusion), and at 0.5, 1, 2, 4, 6, 8, 10, and 24 h after end of infusion on cycle 1 days 1 and 15; here also, for institutions not able to collect the 8-h or 10-h after-end-of-infusion samples, the 24-h sample was replaced with 22-h and 28-h post-dose samples. The liquid chromatography (LC)-mass spectrometry (MS)/MS method was developed and validated in the Bioanalysis Department of AbbVie. Fifty microliter of human plasma (K2EDTA as anticoagulant) was fortified with 300 μL of deuterium-stable labelled internal standard and mixed well. A HybridSPE precipitation plate (50 mg/96 wells, Supelco Analytical, Munich, Germany) was used to directly load and elute (under slight vacuum) the fortified samples into a clean collection plate. Samples were dried before reconstitution with 100 μL of 20/80 (v/v) acetonitrile/water, and injected for LC-MS/MS analysis. A Halo C8 (Wilmington, DE, USA; 2.7 μm, 2.1 × 30 mm) was used on an Agilent 1290 Infinity UPLC pump (Agilent Technologies, Santa Clara, CA) to carry out the separation. An isocratic condition with 25/75/0.1 (v/v/v) acetonitrile/water/98% formic acid was used as the mobile phase. The flow rate was set to be 0.6 mL/min. An MPS 3 C ([…] Ruhr, Germany) autosampler was used to introduce samples onto the UPLC system. An API 4000 mass spectrometer (Applied Biosystems, Foster City, CA) was used in the multiple reactions monitoring mode for the detection and quantitation of analyte. Descriptive statistics were used for demographic variables. The numbers and percentages of patients with treatment-emergent AEs (TEAEs) were tabulated using the Medical Dictionary for Regulatory Activities version 16.0 system organ class and preferred term, and further classified according to CTCAE version 4.0 criteria. The safety data set included all patients who received one or more doses of ilorasertib. The pharmacokinetic data set included all patients who received one or more doses of ilorasertib and had one or more pharmacokinetic samples. Values for pharmacokinetic parameters were determined using non-compartmental methods, with data analysed separately for each arm. A repeated measures analysis was performed for Tmax and dose-normalised Cmax, AUCt, and AUC∞. The model included random effects for patient and fixed effects for dose level, day, and the interaction of dose level and day. To assess effects of exposure on pharmacodynamic biomarkers, Cmax was employed as the directly measured marker of exposure for the rapid changes in DBP and PlGF pre-steady-state, while AUC∞ reflected exposure variability at the time of post-multiple-dose skin biopsy. Descriptive statistics were used to summarise ECOG performance status. The efficacy data set included all patients who received one or more doses of ilorasertib.

[1] = Arm II PO BID 40 mg, day 1, N=2, mean (individual)
[2] = Arm II PO BID 40 mg, day 15, N=3
[3] = Arm II PO BID 60 mg, day 1, N=3
[4] = Arm II PO BID 60 mg, day 15, N=1
[5] = Arm II PO BID 60 mg, day 15, N=3
[6] = Arm II PO BID 90 mg, day 1, N=2, mean (individual)
[7] = Arm II PO BID 90 mg, day 1, N=3
[8] = Arm II PO BID 90 mg, day 15, N=2, mean (individual)
[9] = Arm II PO BID 90 mg, day 15, N=3
[10] = Arm II PO BID 130 mg, day 1, N=3
[11] = Arm II PO BID 130 mg, day 1, N=4
[12] = Arm II PO BID 130 mg, day 15, N=1
[13] = Arm II PO BID 130 mg, day 15, N=3
[14] = Arm II PO BID 190 mg, day 1, N=4
[15] = Arm II PO BID 190 mg, day 1, N=7
[16] = Arm II PO BID 190 mg, day 15, N=2, mean (individual)
[17] = Arm II PO BID 190 mg, day 15, N=5
[18] = Arm II PO BID 230 mg, day 1, N=2, mean (individual)
[19] = Arm II PO BID 230 mg, day 1, N=3
[20] = Arm II PO BID 230 mg, day 15, N=1
[21] = Arm II PO BID 230 mg, day 15, N=4
[22] = Arm II PO BID 340 mg, day 1, N=1
[23] = Arm II PO BID 340 mg, day 1, N=3
[24] = Arm II PO BID 340 mg, day 15, N=1
[25] = Arm II PO BID all doses, day 1, N=14
[26] = Arm II PO BID all doses, day 1, N=26
[27] = Arm II PO BID all doses, day 15, N=7
[28] = Arm II PO BID all doses, day 15, N=22

Nc1ncc(-c2cnn(CCO)c2)c2scc(-c3ccc(NC(=O)Nc4cccc(F)c4)cc3)c12 [ilorasertib, Ilorasertib]
AUC∞/dose [1]: 49.9 (35.6, 64.1)^b ng•h/mL/mg
CL/F [1]: 21.8 (28.1, 15.6)^b L/h
AUCt/dose (Arm II PO BID 40 mg, day 1, N=3): 46.5 ± 20.5 ng·h/mL/mg
AUCt/dose [2]: 46.9 ± 25.6 ng·h/mL/mg
Cmax/dose [2]: 2.4 ± 1.3 ng/mL/mg
AUCt/dose [3]: 45.4 ± 12.2 ng·h/mL/mg
Cmax/dose [3]: 3.2 ± 1.2 ng/mL/mg
AUC∞/dose [4]: 45.3^b ng•h/mL/mg
CL/F [4]: 22.1^b L/h
AUCt/dose [5]: 24.3 ± 5.9 ng·h/mL/mg
Cmax/dose [5]: 1.9 ± 0.47 ng/mL/mg
AUC∞/dose [6]: 22.4 (14.1, 30.6)^b ng•h/mL/mg
CL/F [6]: 51.7 (70.7, 32.6)^b L/h
AUCt/dose [7]: 21.8 ± 8.5 ng·h/mL/mg
Cmax [7]: 300 ± 100 ng/mL
Cmax/dose [7]: 1.7 ± 0.6 ng/mL/mg
AUC∞/dose [8]: 29.6 (41.1, 18.1)^c ng•h/mL/mg
CL/F [8]: 39.8 (24.3, 55.2)^c L/h
t1/2 (harmonic mean) [8]: 16.2 (23.4, 12.4)^c h
AUCt/dose [9]: 22.5 ± 8.4 ng·h/mL/mg
Cmax/dose [9]: 1.8 ± 0.54 ng/mL/mg
AUC∞/dose [10]: 25.1 ± 17.2^c ng•h/mL/mg
CL/F [10]: 51.5 ± 25.9^c L/h
AUCt/dose [11]: 19.5 ± 12.2 ng·h/mL/mg
Cmax/dose [11]: 2.3 ± 1.5 ng/mL/mg
AUC∞/dose [12]: 15.2^b ng•h/mL/mg
CL/F [12]: 65.7^b L/h
AUCt/dose [13]: 9.2 ± 5.0 ng·h/mL/mg
Cmax/dose [13]: 1.0 ± 1.1 ng/mL/mg
AUC∞/dose [14]: 46.8 ± 29.7^d ng•h/mL/mg
CL/F [14]: 29.6 ± 17.9^d L/h
t1/2 (harmonic mean) [14]: 13.7 ± 9.0^d h
AUCt [15]: 8100 ± 4440 ng·h/mL
AUCt/dose [15]: 21.3 ± 11.7 ng·h/mL/mg
Cmax/dose [15]: 1.4 ± 0.8 ng/mL/mg
AUC∞/dose [16]: 28.0 (20.9, 35.2)^c ng•h/mL/mg
CL/F [16]: 38.1 (47.8, 28.4)^c L/h
AUCt/dose [17]: 17.6 ± 13.7 ng·h/mL/mg
Cmax/dose [17]: 1.7 ± 1.0 ng/mL/mg
AUC∞/dose [18]: 19.9 (18.1, 21.7)^b ng•h/mL/mg
CL/F [18]: 50.8 (55.4, 46.1)^b L/h
AUCt/dose [19]: 21.9 ± 7.9 ng·h/mL/mg
Cmax/dose [19]: 1.5 ± 0.5 ng/mL/mg
AUC∞/dose [20]: 28.2^b ng•h/mL/mg
CL/F [20]: 35.5^b L/h
AUCt/dose [21]: 24.4 ± 9.4 ng·h/mL/mg
Cmax/dose [21]: 1.7 ± 1.0 ng/mL/mg
AUC∞/dose [22]: 145^e ng•h/mL/mg
CL/F [22]: 6.9^e L/h
AUCt/dose [23]: 57.8 ± 21.8 ng·h/mL/mg
Cmax/dose [23]: 3.0 ± 1.3 ng/mL/mg
AUCt/dose [24]: 23.0 ng·h/mL/mg
Cmax/dose [24]: 1.1 ng/mL/mg
AUC∞/dose [25]: 42.3 ± 36.5^f ng•h/mL/mg
CL/F [25]: 37.7 ± 21.8^f L/h
t1/2 (harmonic mean) [25]: 13.0 ± 6.2^f h
AUCt/dose [26]: 31.1 ± 18.8 ng·h/mL/mg
Cmax/dose [26]: 2.2 ± 1.2 ng/mL/mg
AUC∞/dose [27]: 29.1 ± 11.7^d ng•h/mL/mg
CL/F [27]: 39.9 ± 16.7^d L/h
t1/2 (harmonic mean) [27]: 9.9 ± 3.7^d h
AUCt/dose [28]: 23.5 ± 15.5 ng·h/mL/mg
Cmax/dose [28]: 1.7 ± 0.9 ng/mL/mg
